Experimental data as given in patent publication US20180148418A1, “AMIDO-SUBSTITUTED CYCLOHEXANE DERIVATIVES” (Bayer Pharma Aktiengesellschaft, priority 2015, published 2018).

Tests used:
[1] = tested on: wildtype Wnt signaling cascade; experiment: HEK293 TOP assay (Super TopFlash luciferase reporter, Wnt-3a stimulated); assay type: cell-based; conditions: Homo sapiens, HEK293, 16 h, HEK293 TOP reporter cells, Wnt3a at EC50, 16 hours
In short: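 Compound series (50 μM down to 15 nM, 3.16-fold) diluted from DMSO 50-fold into CAFTY buffer, pH 7.4, 2 mM Ca^2+, 0.01% BSA, applied to Wnt-3a-stimulated HEK293 TopFlash and FOP reporter lines in parallel. Cells seeded 10000/well 24 h before; luciferase signal measured.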

[2] = target: T1, TNKS2 (Homo sapiens, UniProt Q9H2K2); experiment: TNKS2 Assay B (auto-parsylation, [3H]-NAD+ SPA); assay type: biochemical; conditions: 6 nM TNKS2, auto-parsylation, over night at room temperature
T1 construct: purchased BPS Bioscience, San Diego, USA 80572 (TNKS2 Histone Ribosylation Assay Kit)
T1 sequence (Q9H2K2 1-1166): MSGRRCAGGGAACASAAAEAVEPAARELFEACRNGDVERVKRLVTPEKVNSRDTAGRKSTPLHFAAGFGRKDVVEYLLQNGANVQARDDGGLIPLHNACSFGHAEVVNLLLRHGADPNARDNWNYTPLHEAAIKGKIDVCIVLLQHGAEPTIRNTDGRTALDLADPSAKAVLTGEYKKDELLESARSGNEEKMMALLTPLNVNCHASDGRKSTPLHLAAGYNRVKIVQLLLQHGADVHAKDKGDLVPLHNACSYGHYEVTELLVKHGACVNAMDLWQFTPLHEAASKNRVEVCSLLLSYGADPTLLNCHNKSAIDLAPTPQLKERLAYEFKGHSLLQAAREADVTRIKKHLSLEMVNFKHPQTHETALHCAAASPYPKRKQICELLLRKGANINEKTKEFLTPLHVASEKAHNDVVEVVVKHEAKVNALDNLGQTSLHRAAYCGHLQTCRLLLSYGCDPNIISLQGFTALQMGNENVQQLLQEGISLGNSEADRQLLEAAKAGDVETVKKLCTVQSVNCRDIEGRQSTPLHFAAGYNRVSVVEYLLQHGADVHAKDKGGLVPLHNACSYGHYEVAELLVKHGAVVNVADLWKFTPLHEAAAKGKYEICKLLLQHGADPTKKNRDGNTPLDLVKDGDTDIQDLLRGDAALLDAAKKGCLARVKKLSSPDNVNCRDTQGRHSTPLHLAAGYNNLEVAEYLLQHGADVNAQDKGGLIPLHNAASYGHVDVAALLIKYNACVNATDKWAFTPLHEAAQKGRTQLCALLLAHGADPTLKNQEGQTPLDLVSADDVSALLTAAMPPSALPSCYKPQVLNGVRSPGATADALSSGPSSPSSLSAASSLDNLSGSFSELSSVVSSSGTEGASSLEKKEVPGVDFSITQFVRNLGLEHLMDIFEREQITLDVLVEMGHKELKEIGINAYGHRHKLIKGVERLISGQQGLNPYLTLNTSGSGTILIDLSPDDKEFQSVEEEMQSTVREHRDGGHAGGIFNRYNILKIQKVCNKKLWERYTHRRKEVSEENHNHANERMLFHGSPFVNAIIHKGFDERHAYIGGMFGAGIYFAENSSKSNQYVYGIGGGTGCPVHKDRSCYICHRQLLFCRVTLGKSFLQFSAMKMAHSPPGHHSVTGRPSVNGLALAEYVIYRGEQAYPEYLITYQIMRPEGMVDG

Structure (SMILES) | IC50 [1] | IC50 [2]
CC(C)OCCNC(=O)c1nc[nH]c1C(=O)N[C@H]1CC[C@H](C(=O)Nc2ccc(F)cc2Cl)CC1 [Example 76, N^5-{trans-4-[(2-chloro-4-fluorophenyl)carbamoyl]cyclohexyl}-N^4-(2-isopropoxyethyl)-1H-imidazole-4,5-dicarboxamide] | 230 nM | 78 nM
CNC(=O)c1ocnc1C(=O)N[C@H]1CC[C@H](C(=O)Nc2ccc(F)cc2Cl)CC1 [Example 30] | 44000 nM | > 10000 nM
O=C(NCC1CCCO1)c1nc[nH]c1C(=O)N[C@H]1CC[C@H](C(=O)Nc2cc(N3CCOCC3)ccc2Cl)CC1 (stereo partly drawn) [Example 89, N^5-(trans-4-{[2-chloro-5-(morpholin-4-yl)phenyl]carbamoyl}cyclohexyl)-N^4-(tetrahydrofuran-2-ylmethyl)-1H-imidazole-4,5-dicarboxamide] | 1200 nM | 1600 nM
COC[C@H](C)NC(=O)c1nc[nH]c1C(=O)N[C@H]1CC[C@H](C(=O)Nc2c(F)cc(F)cc2Cl)CC1 [Example 66, N^5-{trans-4-[(2-chloro-4,6-difluorophenyl)carbamoyl]cyclohexyl}-N^4-[(2S)-1-methoxypropan-2-yl]-1H-imidazole-4,5-dicarboxamide] | 250 nM | 280 nM
Cc1cc(C)n2ncc(C(=O)N[C@H]3CC[C@H](C(=O)Nc4ccc(F)cc4Cl)CC3)c2n1 [Example 44, N-{trans-4-[(2-chloro-4-fluorophenyl)carbamoyl]cyclohexyl}-5,7-dimethylpyrazolo[1,5-a]pyrimidine-3-carboxamide] | 81 nM | 150 nM
Cc1cc(C)n2ncc(C(=O)NC3CCC(C(=O)Nc4ccc(F)cc4Cl)CC3C)c2n1 (stereo not drawn) [Example 42, N-{4-[(2-chloro-4-fluorophenyl)carbamoyl]-2-methylcyclohexyl}-5,7-dimethylpyrazolo[1,5-a]pyrimidine-3-carboxamide] | 120 nM | 120 nM
Cc1cc(C)n2ncc(C(=O)N[C@H]3CC[C@@]4(CCN(c5cc(F)c(F)cc5Cl)C4=O)CC3)c2n1 [Example 299, N-[(trans)-2-(2-chloro-4,5-difluorophenyl)-1-oxo-2-azaspiro[4.5]dec-8-yl]-5,7-dimethylpyrazolo[1,5-a]pyrimidine-3-carboxamide] | 0.9 nM | 2 nM
CNC(=O)c1nc[nH]c1C(=O)N[C@H]1CC[C@H](C(=O)Nc2c(Br)cc(F)c(F)c2F)CC1 [Example 27, N^5-{trans-4-[(6-bromo-2,3,4-trifluorophenyl)carbamoyl]cyclohexyl}-N^4-methyl-1H-imidazole-4,5-dicarboxamide] | 35 nM | 19 nM
O=C(NCC1CCCO1)c1nc[nH]c1C(=O)N[C@H]1CC[C@H](C(=O)Nc2cc(F)c(F)cc2Cl)CC1 (stereo partly drawn) [Example 86, N^5-{trans-4-[(2-chloro-4,5-difluorophenyl)carbamoyl]cyclohexyl}-N^4-(tetrahydrofuran-2-ylmethyl)-1H-imidazole-4,5-dicarboxamide] | 94 nM | 22 nM
CNC(=O)c1[nH]cnc1C(=O)NC1CCC(C(=O)Nc2ccc(F)cc2Cl)CC1C (single isomer, unassigned) [Example 41, N^4-{4-[(2-chloro-4-fluorophenyl)carbamoyl]-2-methylcyclohexyl}-N^5-methyl-1H-imidazole-4,5-dicarboxamide] | 21000 nM | > 10000 nM

More lines, in order of falling IC50 [1], values ahead:

IC50 [1] | IC50 [2] | Structure (SMILES)
1900 nM | 2700 nM | COC(C)(C)CNC(=O)c1nc[nH]c1C(=O)N[C@H]1CC[C@H](C(=O)Nc2cc(N3CCOCC3)ccc2Cl)CC1 [Example 90, N^5-(trans-4-{[2-chloro-5-(morpholin-4-yl)phenyl]carbamoyl}cyclohexyl)-N^4-(2-methoxy-2-methylpropyl)-1H-imidazole-4,5-dicarboxamide]
1100 nM | 710 nM | Cc1c(C(C)O)cnc2c(C(=O)N[C@H]3CC[C@H](C(=O)Nc4ccc(F)cc4Cl)CC3)cnn12 (stereo partly drawn) [Example 58, N-{trans-4-[(2-chloro-4-fluorophenyl)carbamoyl]cyclohexyl}-6-(1-hydroxyethyl)-7-methylpyrazolo[1,5-a]pyrimidine-3-carboxamide]
740 nM | 49 nM | Cc1cc(NC(=O)[C@H]2CC[C@H](NC(=O)c3[nH]cnc3C(=O)NCC3CCCO3)CC2)c(Cl)cc1F (stereo partly drawn) [Example 64, N^5-{trans-4-[(2-chloro-4-fluoro-5-methylphenyl)carbamoyl]cyclohexyl}-N^4-(tetrahydrofuran-2-ylmethyl)-1H-imidazole-4,5-dicarboxamide]
370 nM | 100 nM | CC(C)(O)CNC(=O)c1nc[nH]c1C(=O)N[C@H]1CC[C@H](C(=O)Nc2ccc(F)cc2Cl)CC1 [Example 75, N^5-{trans-4-[(2-chloro-4-fluorophenyl)carbamoyl]cyclohexyl}-N^4-(2-hydroxy-2-methylpropyl)-1H-imidazole-4,5-dicarboxamide]
350 nM | 170 nM | COc1ccc2ncc(C(=O)N[C@H]3CC[C@H](C(=O)Nc4ccc(F)cc4Cl)CC3)n2n1 [Example 50, N-{trans-4-[(2-chloro-4-fluorophenyl)carbamoyl]cyclohexyl}-6-methoxyimidazo[1,2-b]pyridazine-3-carboxamide]
240 nM | 270 nM | COC[C@H](C)NC(=O)c1nc[nH]c1C(=O)N[C@H]1CC[C@H](C(=O)Nc2ccc(F)cc2Cl)CC1 [Example 83, N^5-{trans-4-[(2-chloro-4-fluorophenyl)carbamoyl]cyclohexyl}-N^4-[(2S)-1-methoxypropan-2-yl]-1H-imidazole-4,5-dicarboxamide]
130 nM | 74 nM | O=C(N[C@H]1CC[C@H](C(=O)Nc2ccc(F)cc2Cl)CC1)c1cnn2cccnc12 [Example 43, N-{trans-4-[(2-chloro-4-fluorophenyl)carbamoyl]cyclohexyl}pyrazolo[1,5-a]pyrimidine-3-carboxamide]
92 nM | 380 nM | COCC(C)NC(=O)c1nc[nH]c1C(=O)N[C@H]1CC[C@@]2(CCN(c3cccc(Cl)c3)C2=O)CC1 (stereo partly drawn) [Example 285, N^5-[(trans)-2-(3-chlorophenyl)-1-oxo-2-azaspiro[4.5]dec-8-yl]-N^4-(1-methoxypropan-2-yl)-1H-imidazole-4,5-dicarboxamide]
86 nM | 17 nM | COC1CN(C(=O)c2nc[nH]c2C(=O)N[C@H]2CC[C@H](C(=O)Nc3ccc(F)cc3Cl)CC2)C1 [Example 24, 4 N-{trans-4-[(2-chloro-4-fluorophenyl)carbamoyl]cyclohexyl}-4-[(3-methoxyazetidin-1-yl)carbonyl]-1H-imidazole-5-carboxamide]
52 nM | 72 nM | CNC(=O)c1nc[nH]c1C(=O)N[C@H]1CC[C@H](C(=O)Nc2ccc(F)cc2Cl)CC1 [Example 1, N^5-{trans-4-[(2-chloro-4-fluorophenyl)carbamoyl]cyclohexyl}-N^4-methyl-1H-imidazole-4,5-dicarboxamide]
18 nM | 45 nM | Cc1cc(N2CCC[C@]3(CC[C@@H](NC(=O)c4cnn5cccnc45)CC3)C2=O)c(Cl)cc1F [Example 300, N-[(trans)-2-(2-chloro-4-fluoro-5-methylphenyl)-1-oxo-2-azaspiro[5.5]undec-9-yl]pyrazolo[1,5-a]pyrimidine-3-carboxamide]
